Data reported in ChEMBL document CHEMBL1165924 (Bioorg Med Chem, 2010).

Experiments:
[1] = target: T1, Neuraminidase (Influenza A virus, UniProt B4URF0); test: Inhibition of Influenza A virus A/WSN/1933(H1N1) neuraminidase
[2] = Antiviral activity against Influenza A virus (A/WSN/1933(H1N1)) infected in MDCK cells assessed as inhibition of virus-induced cytopathicity; assay type: functional, organism-based
[3] = target: T1, Neuraminidase; test: Inhibition of Influenza A virus A/Vienna/83/58(H2N2) neuraminidase
[4] = tested on: Influenza A virus; test: Antiviral activity against Influenza A virus (A/Singapore/1/1957 (H2N2)) infected in MDCK cells assessed as inhibition of virus-induced plaque formation; assay type: functional, organism-based
[5] = target: T1, Neuraminidase

T1 sequence (B4URF0 whole entry): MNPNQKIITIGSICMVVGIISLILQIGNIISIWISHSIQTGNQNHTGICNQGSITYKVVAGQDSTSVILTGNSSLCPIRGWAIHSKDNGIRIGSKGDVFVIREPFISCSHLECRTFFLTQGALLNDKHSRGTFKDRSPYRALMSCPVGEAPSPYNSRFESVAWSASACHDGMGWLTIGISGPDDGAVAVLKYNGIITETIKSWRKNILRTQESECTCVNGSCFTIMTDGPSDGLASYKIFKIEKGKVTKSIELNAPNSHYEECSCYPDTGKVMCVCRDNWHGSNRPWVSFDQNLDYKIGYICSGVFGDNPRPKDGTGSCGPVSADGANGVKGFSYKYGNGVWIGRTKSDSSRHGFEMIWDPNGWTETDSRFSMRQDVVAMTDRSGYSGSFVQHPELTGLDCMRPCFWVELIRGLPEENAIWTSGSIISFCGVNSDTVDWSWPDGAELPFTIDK

CC(=O)N[C@H]1[C@H]([C@H](O)[C@H](O)CO)OC(C(=O)O)=C[C@@H]1NCCCCN
IC50 [1]: > 200 µM

CC(=O)N[C@H]1[C@H]([C@H](O)[C@H](O)CO)OC(C(=O)O)=C[C@@H]1NC(=N)NCCCCN
IC50 [1]: > 200 µM

CC(=O)N[C@H]1[C@H]([C@H](O)[C@H](O)CO)OC(C(=O)O)=C[C@@H]1N(CCCN)C(=N)N
IC50 [1]: > 200 µM

CC(=O)N[C@H]1[C@H]([C@H](O)[C@H](O)CO)OC(C(=O)O)=C[C@@H]1NCCCC(=O)O
IC50 [1]: 70 µM

CC(=O)N[C@H]1[C@H]([C@H](O)[C@H](O)CO)OC(C(=O)O)=C[C@@H]1N(CCCCN)C(=N)N
IC50 [1]: > 200 µM

CC(=O)N[C@H]1[C@H]([C@H](O)[C@H](O)CO)OC(C(=O)O)=C[C@@H]1N(CCCC(=O)N1CCN(C)CC1)C(=N)N
IC50 [1]: 6.5 µM | EC50 [2]: 10.7 µM

CC(=O)N[C@H]1[C@H]([C@H](O)[C@H](O)CO)OC(C(=O)O)=C[C@@H]1N(CCCC(=O)N1CCCCC1)C(=N)N
IC50 [1]: 23.1 µM | EC50 [2]: 45 µM

CC(=O)N[C@H]1[C@H]([C@H](O)[C@H](O)CO)OC(C(=O)O)=C[C@@H]1N=C(N)NCCCN
IC50 [1]: > 200 µM

CC(=O)N[C@H]1[C@H]([C@H](O)[C@H](O)CO)OC(C(=O)O)=C[C@@H]1O [NEU5AC2EN]
IC50 [3]: 190 µM

CC(=O)N[C@H]1[C@H]([C@H](O)[C@H](O)CO)OC(C(=O)O)=C[C@@H]1NC1=NCCN1
IC50 [1]: > 200 µM

CC(=O)N[C@H]1[C@H]([C@H](O)[C@H](O)CO)OC(C(=O)O)=C[C@@H]1N
EC50 [4]: 1.5 µM | Ki [5]: 0.04 µM

CC(=O)N[C@H]1[C@H]([C@H](O)[C@H](O)CO)OC(C(=O)O)=C[C@@H]1NCCCCC(=O)O
IC50 [1]: 80 µM

CC(=O)N[C@H]1[C@H]([C@H](O)[C@H](O)CO)OC(C(=O)O)=C[C@@H]1N(CCCC(=O)N1CCOCC1)C(=N)N
IC50 [1]: 33.3 µM | EC50 [2]: 37.6 µM

CC(=O)N[C@H]1[C@H]([C@H](O)[C@H](O)CO)OC(C(=O)O)=C[C@@H]1NC(=N)N [ZANAMIVIR]
EC50 [2]: 0.013 µM

CC(=O)N[C@H]1[C@H]([C@H](O)[C@H](O)CO)OC(C(=O)O)=C[C@@H]1N(CCCC(=O)N1CCNCC1)C(=N)N
IC50 [1]: 2.15 µM | EC50 [2]: 0.77 µM

CC(=O)N[C@H]1[C@H]([C@H](O)[C@H](O)CO)OC(C(=O)O)=C[C@@H]1NCCCN
IC50 [1]: > 200 µM

CC(=O)N[C@H]1[C@H]([C@H](O)[C@H](O)CO)OC(C(=O)O)=C[C@@H]1N(CCCC(=O)O)C(=N)N
IC50 [1]: 7.12 µM | EC50 [2]: 52 µM
